Laboratory results from paper PMC7538598 (Scientific Reports, 2020).

Experiments:
[1] = tested on: GlyR; details: full agonist, maximal current responses; cited from earlier work
[2] = target: T1, α1-GFP GlyR (Homo sapiens, UniProt P23415); test: MST of α1-GFP GlyR SMA-copolymer nanodiscs (total solubilized membranes) from X. laevis oocytes; type: binding; details: mean ± SEM, read-out: cEC50 (MST)
T1 construct: made in house; host or cells: Xenopus laevis oocytes injected with cRNA; total solubilized membranes in SMA nanodiscs
T1 sequence (P23415 29-457): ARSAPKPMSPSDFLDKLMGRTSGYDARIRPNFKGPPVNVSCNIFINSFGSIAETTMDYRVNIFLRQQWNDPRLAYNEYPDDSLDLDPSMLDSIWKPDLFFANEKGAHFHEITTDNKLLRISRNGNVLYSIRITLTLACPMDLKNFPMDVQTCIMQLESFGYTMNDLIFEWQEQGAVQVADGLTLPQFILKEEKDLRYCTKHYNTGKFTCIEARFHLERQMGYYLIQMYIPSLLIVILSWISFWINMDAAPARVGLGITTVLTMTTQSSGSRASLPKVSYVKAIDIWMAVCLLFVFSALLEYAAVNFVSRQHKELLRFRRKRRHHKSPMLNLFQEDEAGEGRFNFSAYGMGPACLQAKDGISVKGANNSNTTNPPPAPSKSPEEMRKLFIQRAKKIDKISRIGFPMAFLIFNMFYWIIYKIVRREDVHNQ
Procedure: cRNA was synthesized using the AmpliCap-Max T7 High Yield Message Maker Kit (Cellscript, Madison, WI, USA). Therefore GFP-GlyR α1 in pCDNA3.1(+) was linearized with NotI. Oozytes were surgically taken from female X. laevis after anesthesia with 0.1% Tricaine in water. For SMA-copolymer solubilization, 300–400 oocytes were injected with 50 ng in a volume of 50.6 nl of cRNA. After injection the oocytes were incubated in ND-96 solution (96 mM NaCl, 2 mM KCl, 1 mM CaCl2, 1 mM MgCl2, 5 mM HEPES, pH 7.4) at 18 °C for 1–2 days.

[3] = target: T2, α1 GlyR (Homo sapiens, UniProt P23415); test: Two-electrode voltage-clamp whole-cell current recordings in X. laevis oocytes expressing α1 GlyR; type: cell-based
T2 construct: GFP (N); expressed in transfected cells; host or cells: Xenopus laevis oocytes (cRNA injection)
T2 sequence (P23415 29-457): T1 sequence (P23415 29-457)

EC50 [2] [µM]	EC50 ([3]; α1 GlyR expressed in X. laevis oocytes, clamped at −70 mV, mean ± SEM, read-out: aEC50 (electrophysiology)) [µM]	maximal current compared to glycine ([3]; α1 GlyR in X. laevis oocytes, normalized to maximum glycine currents, n = 3) [%]	SMILES	opening times in single-channel recordings [1]
			NCC(=O)O [glycine]	95–98%
474 ± 66.1	843 ± 16	61	NCCS(=O)(=O)O [taurine]	
